Source: US11878075B2, “Sustained release formulations of dysoxylum binefacterum” (COUNCIL OF SCIENTIFIC AND INDUSTRIAL RESEARCH, priority 2018, dated 2024)

What was measured:
[1] = test system: TNF-alpha production in THP-1 cells; assay: In-vitro cytokine inhibition in LPS-stimulated THP-1 cells (TNF-α ELISA); format: cell-based, human; settings: THP-1 cells, 1.56, 3.12, and 6.25 μg/mL
Protocol: For the in vitro analysis of pro-inflammatory cytokine (TNF-α), human leukemia THP-1 cells were seeded in a 24-well plate at a density of 4×10^5 cells/ml of RPMI medium per well. THP-1 cells were then treated with PMA (20 ng/ml) for differentiation into macrophages for 18 h followed by a rest period of 48 h. Cells were further co-treated with test samples and 1 μg/ml of lipopolysaccharide (LPS) in a serum-free medium. Culture supernatant was harvested after 24 h for analysis of TNF-α by using OptEIA ELISA Kits from BD Biosciences. Total protein content for all the samples was calculated by using Bradford reagent from Bio-Rad Laboratories. All samples were normalized by dividing cytokine concentration with total quantity of protein. Betamethasone was used as positive control in this study.

TNF-α [2] = assay: LPS induced septic shock model, serum TNF-α ELISA; format: in vivo, BALB/C mice; settings: 20 mg/kg (PO)
Protocol: The effect of rohitukine, hydroalcoholic extract (A002-A) and rohitukine-enriched fraction (A002-AEF) on TNF-α secretion was studied in LPS induced septic shock model in BALB/C mice. BALB/C female mice (20-25 g) were randomly divided into 6 groups (n=4 per group). Animals were treated according to the following pattern: group 1 (vehicle), group 2 (LPS, 20 mg/kg), group 3 (Rohitukine, 20 mg/kg), group 4 (A002-A, 200 mg/kg), group 5 (A002-AEF, 200 mg/kg), group 6 (dexamethasone, 10 mg/kg). The hydroalcholic extract (A002-A) and its enriched fraction A002-AEF was dissolved in water and dexamethasone was dissolved in PBS. PBS/water was used as a vehicle control. Compounds and vehicle were administered perorally for 1 h prior to treatment with LPS. LPS was injected through intraperitoneal route for 5 h. Blood was collected and serum was extracted for performing ELISA analysis of TNF-α cytokine. The ELISA was performed according to manufacturer's instructions (BD Bioscience). The absorbance was measured at 450 nm and each estimated cytokine value was normalized with total serum protein.

in vivo = settings: male, SD, rat
Protocol: The pharmacokinetic study was performed in male SD rats. First the pharmacokinetic study of “rohitukine” was performed by both intravenous as well as per oral (PO) routes in order to understand the oral exposure and oral bioavailability of rohitukine. Rohitukine was administered at 5 mg/kg by IV route and at 50 mg/kg by oral route. For comparative oral pharmacokinetic study of plain extract (A002-AEF) and SR formulation “SR-A002-AEF” formulation (filled in 9e1 capsules), the dose equivalent to 6.77 mg/kg dose of rohitukine was administered in SD rats in both these groups. Blood samples were collected (n=3/time point) at 0.083 (IV only), 0.25, 0.5, 1, 2, 4, 8 and 24 h, post-dose. At each time point about 200 μL of blood was collected by jugular vein into a labeled microfuge tube containing 200 mM K2EDTA solution (20 μL per mL of blood) and equivalent volume of heparinized saline was replaced following sample collection. The blood samples were processed to obtain the plasma samples within 30 min of scheduled sampling time. All plasma samples were stored below −60° C. until bioanalysis. The plasma samples were analyzed for rohitukine content using a fit-for purpose LC-MS/MS method with a lower limit of quantification (LLOQ) of 9.95 ng/mL. The pharmacokinetic parameters of rohitukine were calculated using the non-compartmental analysis tool of validated Phoenix® WinNonlin® software (version 6.3).

IL-6 = assay: Collagen induced arthritis model, serum IL-6; format: in vivo, DBA/1J mice; settings: oral administration in arthritic mice, day 34 to day 48
Protocol: (§1) Six weeks old DBA/1J mice (procured from Jackson Laboratories, USA) were used in this study. On the day of the immunization (day 1), required amount of Chicken collagen II (CII), 2 mg/ml (Chondrex Inc, USA) stock solution was thawed at 4° C. into a small (20 ml) glass bottle. Equal volume of CII solution was added to the complete Freund's adjuvant (CFA), 1 mg/ml, (Sigma aldrich, USA) in 1:1 ratio and homogenized at 4° C. to produce a homogenous, stiff, white creamy emulsion for immunization. Mice were weighed and anesthetized with isoflurane. 150 μl of CII/CFA (1:1) emulsion was injected intradermally at two different sites into the mice lower back (previously shaven) on day 1. Mice were given the booster on day-21 in a similar manner as day 1 except that CII was emulsified in incomplete Freund's adjuvant. Mice were given booster of LPS from E. coli (50 μg/mouse; Sigma Aldrich, USA) on day 28. Dosing of the test samples in DBA/1J mouse CIA model was initiated after development of clinical symptoms. Animals were randomized into different treatment groups based on clinical scores on day 33. Treatment continued from day 34 to day 48. Serum IL-6, TNF-α estimation was done using ELISA kit from R & D Systems, USA. All values are expressed as Mean±SEM. * p<0.05 as compared to vehicle treatment, one way ANOVA followed by Dunnett's multiple comparison test.

[3] = pH dependent stability of rohitukine; format: physicochemical; settings: pH 1.2 buffer, pH 4.0 buffer, phosphate buffer pH 6.8, PBS pH 7.4, SGF (pH 1.2), SIF (pH 6.8) and plasma up to 24 hrs
Protocol: The stability of rohitukine was performed in pH 1.2 buffer, pH 4.0 buffer, phosphate buffer pH 6.8, phosphate buffered saline pH 7.4, SGF (pH 1.2), SIF (pH 6.8) and plasma up to 24 hrs. The % of rohitukine hydrolyzed was determined by HPLC analysis. The HPLC analysis was carried out using the method as described in example 1.

[4] = rats, oral and intravenous administration; cited from earlier work
TNF-α [5] = assay: Collagen induced arthritis model, serum TNF-α; format: in vivo, DBA/1J mice
Protocol: as §1

SMILES: Cc1cc(=O)c2c(O)cc(O)c([C@H]3CCN(C)C[C@H]3O)c2o1 [rohitukine]
- inhibition of LPS-stimulated TNF-alpha levels [1]: significant inhibition of TNF-alpha
- serum TNF-alpha levels (TNF-α [2]): not able to significantly inhibit the serum TNF-alpha levels
- bioavailability (in vivo): > 100%
- AUC(0-t) (in vivo; iv, 5 mg/kg): 1130 ng·h/mL
- clearance (in vivo; iv, 5 mg/kg): 72.7 mL/min/kg
- clearance relative to normal hepatic blood flow (55 mL/min/kg) (in vivo; iv, 5 mg/kg): ~1.32 fold
- half-life (in vivo; iv, 5 mg/kg): 22.9 min
- volume of distribution relative to normal total body water (0.7 L/kg) (in vivo; iv, 5 mg/kg): ~2.41 fold
- AUC(0-t) (in vivo; po, 50 mg/kg): 26400 ng·h/mL
- Cmax (in vivo; po, 50 mg/kg): 14900 ng/mL
- half-life (in vivo; po, 50 mg/kg): 63.6 min
- median time to reach the maximum plasma concentration (in vivo; po, 50 mg/kg): 0.25 h
- serum IL-6 cytokine levels (IL-6): decreased levels of serum IL-6 cytokine
- stability of rohitukine (% hydrolyzed by HPLC) [3]: stable at all the conditions tested
- biological half-life [4]: 1-2 h
- serum TNF-alpha (TNF-α [5]; 5-15 mg/kg (PO) doses): could not inhibit serum TNF-alpha
- serum TNF-alpha cytokine (TNF-α [5]; 5-30 mg/kg doses): no significant inhibition of TNF-alpha cytokine

SMILES: Cc1cc(=O)c2c(O[C@@H]3OC(CO)[C@@H](O)[C@H](O)C3O)cc(O)cc2o1 (stereo partly drawn) [schumaniofioside A]
- inhibition of LPS-stimulated TNF-alpha levels [1]: significant inhibition of TNF-alpha
